Strand notation (5' to 3'): a small letter for the sugar, then the base; units joined by * are phosphorothioate-linked, units joined directly phosphodiester-linked; [ ] holds rarer units or linkages, { } end groups; capitals alone tell only the bases. [ms] = mesyl phosphoramidate linkage; e = 2'-O-(2-methoxyethyl) (MOE); k = constrained ethyl (cEt); [5mC] = 5-methylcytosine; d = 2'-deoxy (DNA)
Legend:
[1] = tested on: human APOE RNA; test: Dose-dependent inhibition of human APOE RNA in HepG2 cells, electroporation, 24 hours (Example 6); type: cell-based
Protocol: Modified oligonucleotides selected from the examples above were tested at various doses in HepG2.
HepG2 cells plated at a density of 50,000 cells per well were treated by electroporation with various concentrations of modified oligonucleotide as specified in the tables below. […] APOE RNA levels were measured using the human primer probe set RTS3073 (described herein above). APOE RNA levels were normalized to human GAPDH. Human GAPDH was amplified using human primer probe set RTS 104 (described herein above). Results are presented as percent APOE RNA, relative to the amount of APOE RNA in untreated control cells (% UTC). The half maximal inhibitory concentration (IC50) of each modified oligonucleotide was calculated in GraphPad Prism 10 (GraphPad Software, San Diego, CA) and is also presented in the tables below.

[2] = tested on: human APOE RNA; test: Dose-dependent inhibition of human APOE RNA in HepG2 cells, electroporation, 50,000 cells per well, RT-PCR normalized to GAPDH (Example 4, Tables 8-10); type: cell-based; conditions: HepG2, electroporation
Protocol: Modified oligonucleotides selected from the examples above were tested at various doses in HepG2 cells. The modified oligonucleotides were tested in a series of experiments that had the same culture conditions. Each experiment is identified in separate tables below.
HepG2 cells plated at a density of 50,000 cells per well were treated by electroporation with various concentrations of modified oligonucleotide as specified in the tables below. […] APOE RNA levels were measured using the human primer probe set RTS3073 (forward sequence […], designated herein as SEQ ID NO: 7; reverse sequence CCATCAGCGCCCTCAGTT, designated herein as SEQ ID NO: 8; probe sequence […], designated herein as SEQ ID NO:9). APOE RNA levels were normalized to human GAPDH. […] Results are presented as percent APOE RNA, relative to the amount of APOE RNA in untreated control cells (UTC).

Substance: 1736517 (e[5mC]*eTeTeG*kG*kT*dG[ms]dA[ms]dA[ms]dT*d[5mC]*dT*dT*dT*dA[ms]dT*eT*eA*eA*eA; antisense) [Compound 1736517]
- IC50 [1]: 470 nM
- APOE RNA (% UTC) ([1]; 5 nM): 106 % UTC
- APOE RNA (% UTC) ([1]; 13 nM): 92 % UTC
- APOE RNA (% UTC) ([1]; 33 nM): 94 % UTC
- APOE RNA (% UTC) ([1]; 82 nM): 84 % UTC
- APOE RNA (% UTC) ([1]; 205 nM): 57 % UTC
- APOE RNA (% UTC) ([1]; 512 nM): 42 % UTC
- APOE RNA (% UTC) ([1]; 1,280 nM): 35 % UTC
- APOE RNA (% UTC) ([1]; 3,200 nM): 22 % UTC
- APOE RNA (% UTC) ([1]; 8,000 nM): 13 % UTC
- APOE RNA (% UTC) ([1]; 20,000 nM): 10 % UTC

Substance: 1736516 (e[5mC]*eTeTeG*eG*kT*dG[ms]dA[ms]dA[ms]dT*d[5mC]*dT*dT*dT*dA[ms]dT*eT*eA*eA*eA; antisense) [Compound 1736516]
- IC50 [1]: 1140 nM
- APOE RNA (% UTC) ([1]; 5 nM): 106 % UTC
- APOE RNA (% UTC) ([1]; 13 nM): 110 % UTC
- APOE RNA (% UTC) ([1]; 33 nM): 121 % UTC
- APOE RNA (% UTC) ([1]; 82 nM): 117 % UTC
- APOE RNA (% UTC) ([1]; 205 nM): 58 % UTC
- APOE RNA (% UTC) ([1]; 512 nM): 59 % UTC
- APOE RNA (% UTC) ([1]; 1,280 nM): 39 % UTC
- APOE RNA (% UTC) ([1]; 3,200 nM): 29 % UTC
- APOE RNA (% UTC) ([1]; 8,000 nM): 32 % UTC
- APOE RNA (% UTC) ([1]; 20,000 nM): 22 % UTC

Substance: 1757566 (eA*e[5mC]eTkTkG*dG*dT*dG*dA*dA*dT*d[5mC]*dT*dT*dT*eAeTeT*eA*eA; antisense) [Compound 1757566]
- APOE RNA (% UTC) ([2]; 5 nM, 16-hour treatment): 82 % UTC
- APOE RNA (% UTC) ([2]; 13 nM, 16-hour treatment): 87 % UTC
- APOE RNA (% UTC) ([2]; 33 nM, 16-hour treatment): 85 % UTC
- APOE RNA (% UTC) ([2]; 82 nM, 16-hour treatment): 73 % UTC
- APOE RNA (% UTC) ([2]; 205 nM, 16-hour treatment): 77 % UTC
- APOE RNA (% UTC) ([2]; 512 nM, 16-hour treatment): 49 % UTC
- APOE RNA (% UTC) ([2]; 1,280 nM, 16-hour treatment): 31 % UTC
- APOE RNA (% UTC) ([2]; 3,200 nM, 16-hour treatment): 22 % UTC
- APOE RNA (% UTC) ([2]; 8,000 nM, 16-hour treatment): 17 % UTC
- APOE RNA (% UTC) ([2]; 20,000 nM, 16-hour treatment): 21 % UTC
- IC50 ([2]; 16-hour treatment): 550 nM

Substance: 1746791 (k[5mC]*dT[ms]dT[ms]kG*kG*dT[ms]dG[ms]dA[ms]dA[ms]dT*d[5mC]*dT*dT*dT*dA[ms]dT*kT*kA*dA[ms]kA; antisense) [Compound 1746791]
- APOE RNA (% UTC) ([2]; 5 nM, 24-hour treatment): 88 % UTC
- APOE RNA (% UTC) ([2]; 13 nM, 24-hour treatment): 104 % UTC
- APOE RNA (% UTC) ([2]; 33 nM, 24-hour treatment): 93 % UTC
- APOE RNA (% UTC) ([2]; 82 nM, 24-hour treatment): 88 % UTC
- APOE RNA (% UTC) ([2]; 205 nM, 24-hour treatment): 80 % UTC
- APOE RNA (% UTC) ([2]; 512 nM, 24-hour treatment): 62 % UTC
- APOE RNA (% UTC) ([2]; 1,280 nM, 24-hour treatment): 35 % UTC
- APOE RNA (% UTC) ([2]; 3,200 nM, 24-hour treatment): 21 % UTC
- APOE RNA (% UTC) ([2]; 8,000 nM, 24-hour treatment): 16 % UTC
- APOE RNA (% UTC) ([2]; 20,000 nM, 24-hour treatment): 21 % UTC
- IC50 ([2]; 24-hour treatment): 850 nM

Substance: 1747052 (k[5mC]*dT[ms]kT*kG*dG[ms]kT*dG[ms]dA[ms]dA[ms]dT*d[5mC]*dT*dT*dT*dA[ms]dT*kT*dA[ms]dA[ms]kA; antisense) [Compound 1747052]
- APOE RNA (% UTC) ([2]; 5 nM, 24-hour treatment): 150 % UTC
- APOE RNA (% UTC) ([2]; 13 nM, 24-hour treatment): 113 % UTC
- APOE RNA (% UTC) ([2]; 33 nM, 24-hour treatment): 148 % UTC
- APOE RNA (% UTC) ([2]; 82 nM, 24-hour treatment): 127 % UTC
- APOE RNA (% UTC) ([2]; 205 nM, 24-hour treatment): 108 % UTC
- APOE RNA (% UTC) ([2]; 512 nM, 24-hour treatment): 79 % UTC
- APOE RNA (% UTC) ([2]; 1,280 nM, 24-hour treatment): 53 % UTC
- APOE RNA (% UTC) ([2]; 3,200 nM, 24-hour treatment): 46 % UTC
- APOE RNA (% UTC) ([2]; 8,000 nM, 24-hour treatment): 31 % UTC
- APOE RNA (% UTC) ([2]; 20,000 nM, 24-hour treatment): 19 % UTC
- IC50 ([2]; 24-hour treatment): 2710 nM

Substance: 1747053 (k[5mC]*dT[ms]dT[ms]kG*kG*kT*dG[ms]dA[ms]dA[ms]dT*d[5mC]*dT*dT*dT*dA[ms]dT*kT*dA[ms]dA[ms]kA; antisense) [Compound 1747053]
- APOE RNA (% UTC) ([2]; 5 nM, 24-hour treatment): 115 % UTC
- APOE RNA (% UTC) ([2]; 13 nM, 24-hour treatment): 131 % UTC
- APOE RNA (% UTC) ([2]; 33 nM, 24-hour treatment): 124 % UTC
- APOE RNA (% UTC) ([2]; 82 nM, 24-hour treatment): 107 % UTC
- APOE RNA (% UTC) ([2]; 205 nM, 24-hour treatment): 70 % UTC
- APOE RNA (% UTC) ([2]; 512 nM, 24-hour treatment): 49 % UTC
- APOE RNA (% UTC) ([2]; 1,280 nM, 24-hour treatment): 57 % UTC
- APOE RNA (% UTC) ([2]; 3,200 nM, 24-hour treatment): 39 % UTC
- APOE RNA (% UTC) ([2]; 8,000 nM, 24-hour treatment): 38 % UTC
- APOE RNA (% UTC) ([2]; 20,000 nM, 24-hour treatment): 32 % UTC
- IC50 ([2]; 24-hour treatment): 2170 nM

Reference: patent US20250353873A1, “COMPOUNDS AND METHODS FOR MODULATING APOE EXPRESSION” (Ionis Pharmaceuticals, Inc., priority 2024, published 2025)
